Reference: patent publication US4919932A, “Pharmaceutical formulation for the treatment of bacterial infections” (priority 1986, dated 1990)
Values after ≈ are worked out from the molar mass of the structure shown. Read-outs that look alike come from different tables or passages of the source.

Tests used:
Staph. SG 511 = test: MIC against Staph. SG 511; format: cell-based
Staph. 285 = test: MIC against Staph. 285; format: cell-based
Staph. 503 = test: MIC against Staph. 503; format: cell-based
Kl. aerog. 1082E = test: MIC against Kl. aerog. 1082E; format: cell-based
Citrob. 82 Cull. = test: MIC against Citrob. 82 Cull.; format: cell-based
Staph. 789 = test: MIC against Staph. 789; format: cell-based; conditions: clinical isolate resistant to the cephalosporin
Staph. 22130 = test: MIC against Staph. 22130; format: cell-based; conditions: clinical isolate resistant to the cephalosporin
Strept. faecium D = test: MIC against Strept. faecium D; format: cell-based; conditions: Enterococcus faecium, clinical isolate resistant to the cephalosporin
Ent. cl. M 423 = test: MIC against Ent. cl. M 423; format: cell-based; conditions: clinical isolate resistant to the cephalosporin
Ent. cl. P99 = test: MIC against Ent. cl. P99; format: cell-based; conditions: clinical isolate resistant to the cephalosporin
B. fragilis 312 = test: MIC against B. fragilis 312; format: cell-based; conditions: Bacteroides fragilis, anaerobic
B. fragilis 960 = test: MIC against B. fragilis 960; format: cell-based; conditions: Bacteroides fragilis, anaerobic
B. fragilis 17390 = test: MIC against B. fragilis 17390; format: cell-based; conditions: Bacteroides fragilis, anaerobic
B. fragilis 18125 = test: MIC against B. fragilis 18125; format: cell-based; conditions: Bacteroides fragilis, anaerobic
B. ovatus 103 = test: MIC against B. ovatus 103; format: cell-based; conditions: Bacteroides ovatus, anaerobic
B. vulgatus 1446 = test: MIC against B. vulgatus 1446; format: cell-based; conditions: Phocaeicola vulgatus, anaerobic
B. thetaiotaomicron 123 = test: MIC against B. thetaiotaomicron 123; format: cell-based; conditions: Bacteroides thetaiotaomicron, anaerobic
Sph. varius 5262 = test: MIC against Sph. varius 5262; format: cell-based; conditions: Fusobacterium varium, anaerobic
Cl. tetani 19406 = test: microbe, parasite or virus in culture; format: cell-based; conditions: Clostridium tetani
Strept. D 21777 = test: MIC against Strept. D 21777; format: cell-based
Strept. D 26777 = test: MIC against Strept. D 26777; format: cell-based
Ent. cl. 2240 Cull. = test: MIC against Ent. cl. 2240 Cull.; format: cell-based
E. coli 2139E = test: MIC against E. coli 2139E; format: cell-based; conditions: Escherichia coli
Kl. pneu. 1976E = test: MIC against Kl. pneu. 1976E; format: cell-based
B. distasonis 1366 = test: MIC against B. distasonis 1366; format: cell-based; conditions: Parabacteroides distasonis
Citrob. 2901 = test: MIC against Citrob. 2901
Ent. cl. M. 447 = test: MIC against Ent. cl. M. 447

With CC(O)C1C(=O)N2C(C(=O)O)=C(Oc3ccc(C(N)=O)cc3)SC12 (stereo not drawn) [(1), sodium 5R,6S-6-(1R-hydroxyethyl)-3-(4-carbamoyl-phenoxy)-7-oxo-4-thia-1-azabicyclo[3.2.0]hept-2-ene-2-carboxylate] the MIC (Staph. SG 511) was 0.062 µg/mL, the MIC (Staph. 285) was 0.062 µg/mL and the MIC (Staph. 503) was 0.062 µg/mL. The MIC (Kl. aerog. 1082E) was 0.5 µg/mL, the MIC (Citrob. 82 Cull.) was 1 µg/mL and the MIC (Staph. 789) was 4 µg/mL. The MIC (Staph. 22130) was 2 µg/mL, the MIC (Strept. faecium D) was 8 µg/mL and the MIC (Ent. cl. M 423) was 4 µg/mL. It also gave an MIC (Ent. cl. P99) of 2 µg/mL, an MIC (B. fragilis 312) of 0.125 µg/mL and an MIC (B. fragilis 960) of 0.125 µg/mL. For the same molecule, the MIC (B. fragilis 17390) was 0.25 µg/mL, the MIC (B. fragilis 18125) was 0.25 µg/mL and the MIC (B. ovatus 103) was 0.125 µg/mL. The MIC (B. vulgatus 1446) was 0.125 µg/mL, the MIC (B. thetaiotaomicron 123) was 0.125 µg/mL and the MIC (Sph. varius 5262) was 0.25 µg/mL. It also gave an MIC (Cl. tetani 19406) of 0.25 µg/mL, an MIC (Strept. D 21777) of 8 µg/mL and an MIC (Strept. D 26777) of 8 µg/mL. The MIC (Ent. cl. 2240 Cull.) was 2 µg/mL, the MIC (E. coli 2139E) was 1 µg/mL and the MIC (Kl. pneu. 1976E) was 1 µg/mL. For the same molecule, the MIC (B. distasonis 1366; B. distasonis 1366, read-out: MIC) was 0.25 µg/mL, the MIC (Citrob. 2901) was 8 µg/mL and the MIC (Ent. cl. M. 447) was 16 µg/mL.
CO/N=C(\C(=O)N[C@@H]1C(=O)N2C(C(=O)O)=C(COC(C)=O)CS[C@H]12)c1csc(N)n1 [(2)] gave an MIC (Staph. SG 511) of 2 µg/mL (≈ 4.39 µM), an MIC (Staph. 285) of 2 µg/mL (≈ 4.39 µM) and an MIC (Staph. 503) of 2 µg/mL (≈ 4.39 µM). The MIC (Kl. aerog. 1082E) was 1 µg/mL (≈ 2.2 µM), the MIC (Citrob. 82 Cull.) was 2 µg/mL (≈ 4.39 µM) and the MIC (Staph. 789) was 64 µg/mL (≈ 141 µM). It also gave an MIC (Staph. 22130) of 32 µg/mL (≈ 70.3 µM), an MIC (Strept. faecium D) of 64 µg/mL (≈ 141 µM) and an MIC (Ent. cl. M 423) of 64 µg/mL (≈ 141 µM). The MIC (Ent. cl. P99) was 64 µg/mL (≈ 141 µM), the MIC (B. fragilis 312) was 128 µg/mL (≈ 281 µM) and the MIC (B. fragilis 960) was 16 µg/mL (≈ 35.1 µM). The MIC (B. fragilis 17390) was 8 µg/mL (≈ 17.6 µM), the MIC (B. fragilis 18125) was 2 µg/mL (≈ 4.39 µM) and the MIC (B. ovatus 103) was 64 µg/mL (≈ 141 µM). For the same molecule, the MIC (B. vulgatus 1446) was 64 µg/mL (≈ 141 µM), the MIC (B. thetaiotaomicron 123) was 64 µg/mL (≈ 141 µM) and the MIC (Sph. varius 5262) was 64 µg/mL (≈ 141 µM). For the same molecule, the MIC (Cl. tetani 19406) was 8 µg/mL (≈ 17.6 µM), the MIC (Strept. D 21777) was 64 µg/mL (≈ 141 µM) and the MIC (Strept. D 26777) was 64 µg/mL (≈ 141 µM). The MIC (Ent. cl. 2240 Cull.) was 0.062 µg/mL (≈ 0.136 µM), the MIC (E. coli 2139E) was 0.031 µg/mL (≈ 0.0681 µM) and the MIC (Kl. pneu. 1976E) was 0.062 µg/mL (≈ 0.136 µM). It also gave an MIC (B. distasonis 1366; 1366) of 0.125 µg/mL (≈ 0.274 µM), an MIC (Citrob. 2901) of 64 µg/mL (≈ 141 µM) and an MIC (Ent. cl. M. 447) of 64 µg/mL (≈ 141 µM).
